Results as given in PMC11369887 (RSC Advances, 2024).
Like-named read-outs stand apart in the source and are kept apart here.

Key:
[1] = tested on: human breast cancer (MCF-7) cell line; assay: MTT cytotoxicity assay, MCF-7; settings: read-out: Cytotoxicity IC50 MCF-7
Experimental: (§2) The newly synthesized compounds were evaluated for their in vitro growth inhibition of three human tumor cell lines representing different tumor types, namely, breast adenocarcinoma (MCF-7), liver hepatocellular carcinoma (Hep3B) and leukemia-SR. […] The breast tumor cell line (MCF-7), hepatic tumor cell line (Hep3B) and leukemia-SR cell line were obtained from American Type Culture Collection. The cells were cultured using Dulbecco's modified Eagle's medium (DMEM) (Invitrogen/Life Technologies) supplemented with 10% fetal bovine serum (FBS) (Hyclone), 10 μg mL^−1 of insulin (Sigma), and 1% penicillin–streptomycin. […] For 24 hours before to the MTT experiment, plate cells (densities of 1.2–1.8 × 10 000 cells per well) were layered in a 96-well plate containing 100 μL of the tested chemical per well and 100 μL of full growth media.
(§3) The culture medium was transferred to a centrifuge tube. […] Then 2.0 to 3.0 mL of Trypsin EDTA solution was added to the flask, and the cells were observed using an inverted microscope until the cell layer became dispersed (usually within 5–15 min). After that, 6.0 to 8.0 mL of complete growth medium was added and the cells were aspirated by gently pipetting. The cell suspension was transferred to the centrifuge tube with the medium and cells from step 1 and centrifuged at approximately 125 g for 5–10 min. The supernatant was discarded. The cell pellet was re-suspended in a fresh growth medium. Appropriate aliquots of the cell suspension were added to new culture vessels.
(§4) For the best results, the cells in the log phase of growth should be employed and the final cell number should not exceed 10^6 cells per cm^2. Each test should include a blank containing a complete medium without cells. Cultures from the incubator were transferred into a laminar flow hood or other sterile work area. […] Reconstituted MTT was added in an amount equal to 10% of the culture medium volume. Cultures were returned to the incubator for 2–4 h depending on the cell type and maximum cell density. An incubation period of 2 h is generally adequate but may be lengthened for low cell densities or cells with lower metabolic activity. The incubation times should be consistent when making comparisons. […] Occasionally, especially in dense cultures, pipetting up and down may be required to completely dissolve the MTT formazan crystals. The absorbance was spectrophotometrically measured at a wavelength of 570 nm. The background absorbance of multiwell plates was measured at 690 nm and subtracted from the 450 nm measurement. Tests performed in multiwell plates might be read using an appropriate type of plate reader or the contents of individual wells might be transferred to appropriate size cuvettes for spectrophotometric measurement.

[2] = tested on: human liver cancer (Hep3B) cell line; assay: MTT cytotoxicity assay, Hep3B; settings: 48 h, read-out: Cytotoxicity IC50 Hep3B
Experimental: as §2, §3, §4

[3] = tested on: leukemia (L-SR) cell line; assay: MTT cytotoxicity assay, L-SR; settings: 48 h, read-out: Cytotoxicity IC50 L-SR
Experimental: as §2, §3, §4

in vitro = settings: human, THLE2 normal liver cells
Experimental: The following normal cell lines were selected: normal breast MCF-10a, normal liver THLE2 and normal lymphocyte PCS-800-011. […] Moreover, the toxic effect of representative target compounds was evaluated on normal breast (MCF10a), normal liver (THLE2) and normal lymphocyte (PCS-800-011) cell lines using an MTT assay. […] The cells were cultured using Dulbecco's modified Eagle's medium (DMEM) (Invitrogen/Life Technologies) supplemented with 10% fetal bovine serum (FBS) (Hyclone), 10 μg mL^−1 of insulin (Sigma), and 1% penicillin–streptomycin. All chemicals and reagents were purchased from Sigma-Aldrich or Invitrogen. For 24 hours before to the MTT experiment, plate cells (densities of 1.2–1.8 × 10 000 cells per well) were layered in a 96-well plate containing 100 μL of the tested chemical per well and 100 μL of full growth media.
as §3, §4

[4] = target: T1, human DNA topoisomerase II beta (Topo2β) (Homo sapiens, UniProt Q02880); assay: Topo2β polymerase inhibition assay (ELISA), Hep3B; format: cell-based; set-up: concentration or dose not given beside the values; settings: against Hep3B cell line
T1 sequence (Q02880 whole entry): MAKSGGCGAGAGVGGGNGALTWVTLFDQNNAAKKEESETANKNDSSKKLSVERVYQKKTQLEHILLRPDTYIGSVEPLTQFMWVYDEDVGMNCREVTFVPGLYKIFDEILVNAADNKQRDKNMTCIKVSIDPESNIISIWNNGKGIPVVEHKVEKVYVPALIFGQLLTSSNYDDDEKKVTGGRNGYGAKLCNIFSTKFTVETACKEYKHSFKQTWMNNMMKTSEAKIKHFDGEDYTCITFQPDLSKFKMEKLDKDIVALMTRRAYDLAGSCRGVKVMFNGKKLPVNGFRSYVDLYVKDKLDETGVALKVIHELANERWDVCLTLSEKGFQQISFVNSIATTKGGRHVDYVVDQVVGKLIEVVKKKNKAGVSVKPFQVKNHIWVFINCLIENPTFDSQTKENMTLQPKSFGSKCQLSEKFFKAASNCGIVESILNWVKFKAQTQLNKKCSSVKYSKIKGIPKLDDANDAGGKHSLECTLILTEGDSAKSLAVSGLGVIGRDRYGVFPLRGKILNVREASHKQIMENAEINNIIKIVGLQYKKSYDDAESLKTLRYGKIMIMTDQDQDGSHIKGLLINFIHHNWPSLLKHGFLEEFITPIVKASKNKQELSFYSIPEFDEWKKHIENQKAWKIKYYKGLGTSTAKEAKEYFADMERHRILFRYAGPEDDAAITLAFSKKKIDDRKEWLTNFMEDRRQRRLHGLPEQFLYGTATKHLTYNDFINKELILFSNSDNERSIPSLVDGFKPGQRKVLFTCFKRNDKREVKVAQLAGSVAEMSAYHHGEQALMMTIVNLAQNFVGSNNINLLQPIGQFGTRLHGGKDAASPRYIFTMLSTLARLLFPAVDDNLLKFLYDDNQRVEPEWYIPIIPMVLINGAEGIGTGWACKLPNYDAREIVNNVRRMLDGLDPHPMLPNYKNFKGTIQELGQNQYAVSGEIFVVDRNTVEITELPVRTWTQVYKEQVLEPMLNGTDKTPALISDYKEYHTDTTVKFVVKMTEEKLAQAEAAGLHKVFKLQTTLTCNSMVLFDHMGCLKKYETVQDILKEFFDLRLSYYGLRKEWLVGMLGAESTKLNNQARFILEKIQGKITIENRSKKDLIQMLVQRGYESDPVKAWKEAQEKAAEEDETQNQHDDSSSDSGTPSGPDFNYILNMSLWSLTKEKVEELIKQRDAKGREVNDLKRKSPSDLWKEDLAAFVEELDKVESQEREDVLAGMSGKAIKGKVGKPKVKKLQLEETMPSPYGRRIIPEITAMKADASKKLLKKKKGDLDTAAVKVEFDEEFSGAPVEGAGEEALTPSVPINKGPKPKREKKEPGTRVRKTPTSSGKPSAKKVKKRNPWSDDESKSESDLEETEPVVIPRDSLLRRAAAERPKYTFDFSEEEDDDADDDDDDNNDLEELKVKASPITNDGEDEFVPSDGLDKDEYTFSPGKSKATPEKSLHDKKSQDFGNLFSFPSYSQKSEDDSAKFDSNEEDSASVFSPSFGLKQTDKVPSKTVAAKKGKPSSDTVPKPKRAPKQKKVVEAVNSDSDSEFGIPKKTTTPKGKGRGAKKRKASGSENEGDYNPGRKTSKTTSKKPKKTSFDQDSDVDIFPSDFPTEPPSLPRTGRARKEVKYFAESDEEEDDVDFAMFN
Experimental: (§1) This assay was employed to predict the inhibitory effects of novel compounds on Topo2β. […] The melting points were determined using a Stuart apparatus, and the values given are uncorrected. IR spectra were recorded using a Shimadzu IR 4000s spectrophotometer (KBr, cm^−1) at the College of Pharmaceutical Sciences and Drug Manufacturing, Misr University for Science and Technology, Egypt. ^1H NMR spectra were recorded using a Bruker 400 MHz (Bruker Corp., Billerica, MA, USA) spectrophotometer, Faculty of Pharmacy, Cairo University, Cairo, Egypt and the Centre of Drug Discovery Research & Development, Faculty of Pharmacy, Ain shams University, and a Jeol 500 MHz spectrophotometer at the National Research Center. Chemical shifts were recorded in ppm on a δ scale, coupling constants (J) were given in Hz and peak multiplicities are designed as follows: s, singlet; d, doublet; t, triplet; m, multiplet. ^13C NMR spectra were recorded using a Bruker 100 MHz spectrophotometer, Faculty of Pharmacy, Cairo University and the Centre of Drug Discovery Research & Development, Faculty of Pharmacy, Ain shams University, and a Jeol 500 MHz spectrophotometer at the National Research Center. Chemical shifts were recorded in ppm on a δ scale. Microanalyses for C, H, and N were carried out at the Regional Center for Mycology and Biotechnology, Faculty of Pharmacy, Al-Azhar University. C, H, and N analysis values were accepted within the range of ± 0.4 of the calculated percentages. […] The used eluting system was methanol : hexane with a ratio of 9.5/0.5 respectively. Scientific microwave MAS-II was used under 300 W microwave irradiation, operating at 80 °C. The evaluation of the cytotoxic activity was performed at VACSERA, Giza, Egypt, using MCF-7, Hep3B and leukemia SR cell lines. Enzyme assay, cell cycle analysis, apoptosis and caspase-3 assay were carried out at VACSERA, Giza, Egypt using an SEB870Hu 96 Tests Enzyme-linked Immunosorbent Assay Kit for Topoisomerase II Beta.
This assay employs a quantitative sandwich enzyme immunoassay technique. […] Antibody specific for Topo2β was pre-coated onto a microplate. Standards and samples were pipetted into the wells and any Topo2β present was bound by the immobilized antibody. After removing any unbound substances, a biotin-conjugated antibody specific for Topo2β was added to the wells. After washing, avidin-conjugated Horseradish Peroxidase (HP) was added to the wells. Following washing to remove any unbound avidin–enzyme reagent, a substrate solution was added to the wells and color develops in proportion to the amount of Topo2β bound in the initial step. The color development was stopped, and the intensity of the color was measured. […] The sensitivity of this assay or lower limit of detection (LLD) is defined as the lowest protein concentration that could be differentiated from zero. The mean OD value of 20 replicates of the zero standard was determined and added to their three standard deviations.[64]

[5] = target: T1, human DNA topoisomerase II beta (Topo2β); assay: Topo2β polymerase inhibition assay (ELISA), L-SR; format: cell-based; set-up: endogenous in cells; host or cells: MCF-7 (A4), Hep3B (A5), L-SR (A6) human cancer cell lines; settings: against L-SR cell line
Experimental: as §1
This assay employs a quantitative sandwich enzyme immunoassay technique. […] Antibody specific for Topo2β was pre-coated onto a microplate. Standards and samples were pipetted into the wells and any Topo2β present was bound by the immobilized antibody. After removing any unbound substances, a biotin-conjugated antibody specific for Topo2β was added to the wells. After washing, avidin-conjugated Horseradish Peroxidase (HP) was added to the wells. […] The color development was stopped, and the intensity of the color was measured. […] The mean OD value of 20 replicates of the zero standard was determined and added to their three standard deviations.[64]

[6] = MCF-7 cell line, MTT assay, 48 h

Molecule | melting point [°C] | IC50 at 48 h (in vitro) [µM] | Topo2β% inhibition [4] [%] | Topo2β% inhibition [5] [%] | IC50 ([1]; Homo sapiens, MCF7, 48 h) [µM] | IC50 ([2]; Homo sapiens, Hep3B) [µM] | IC50 ([3]; Homo sapiens) [µM] | IC50 [1, 6] [µM] | IC50 ([2]; Hep3B cell line, MTT assay) [µM] | IC50 ([3]; L-SR cell line, MTT assay) [µM]
CC1COc2c(N3CCN(C)CC3)c(F)cc3c(=O)c(C(=O)NNC(N)=S)cn1c23 (centres unmarked) [Compound 10, 2-[(9-Fluoro-3-methyl-10-(4-methylpiperazin-1-yl)-7-oxo-2,3-dihydro-7H-[1,4]oxazino[2,3,4-ij]quinoline-6-carbonyl)]hydrazin-1-carbothioamide] | > 300 |  |  |  | 95.4 ± 4.42 | 37.9 ± 1.76 | 66 ± 3.98 |  |  | 
2-[(9-Fluoro-3-methyl-10-(4-methylpiperazin-1-yl)-7-oxo-2,3-dihydro-7H-[1,4]oxazino[2,3,4-ij]quinoline-6-carbonyl)]N-(4-methoxybenzylidene)hydrazine-1-carbothioamide [Compound 11b] |  |  |  |  |  |  |  | 15.5 ± 0.72 | 14.6 ± 0.67 | 40.3 ± 2.43
CC1COc2c(N3CCN(C)CC3)c(F)cc3c(=O)c(C(=O)NN=C4C(=O)Nc5ccccc54)cn1c23 (centres unmarked) [Compound 4a, 9-Fluoro-3-methyl-10-(4-methylpiperazin-1-yl)-7-oxo-N′-(2-oxoindolin-3-ylidene)-2,3-dihydro-7H-[1,4]oxazino[2,3,4-ij]quinoline-6-carbohydrazide] | > 300 |  |  |  | 39.1 ± 1.81 | 18.7 ± 0.87 | 49.6 ± 2.99 |  |  | 
CC1COc2c(N3CCN(C)CC3)c(F)cc3c(=O)c(C(=O)N4NC(=O)CC4=O)cn1c23 (centres unmarked) [Compound 8, 9-Fluoro-6-((3,5-dioxopyrazolidine-1-yl)carbonyl)-3-methyl-10-(4-methylpiperazin-1-yl)-2,3-dihydro-7H-[1,4]oxazino[2,3,4-ij]quinolin-7-one] | 228 to 230 |  |  |  | 3.51 ± 0.16 | 7.69 ± 0.36 | 5.49 ± 0.33 |  |  | 
N-(4-Chlorobenzylidene)-2-[(9-fluoro-3-methyl-10-(4-methylpiperazin-1-yl)-7-oxo-2,3-dihydro-7H-[1,4]oxazino[2,3,4-ij]quinoline-6-carbonyl)]hydrazine-1-carbothioamide [Compound 11a] |  |  |  |  |  |  |  | 54.5 ± 2.52 | 80.2 ± 3.71 | 19.9 ± 1.2
CC1COc2c(N3CCN(C)CC3)c(F)cc3c(=O)c(C(=O)NN=C4C(=O)Nc5ccc(Br)cc54)cn1c23 (centres unmarked) [Compound 4b, N′-(5-Bromo-2-oxoindolin-3-ylidene)-9-fluoro-3-methyl-10-(4-methylpiperazin-1-yl)-7-oxo-2,3-dihydro-7H-[1,4]oxazino[2,3,4-ij]quinoline-6-carbohydrazide] | > 300 |  |  |  | 5.59 ± 0.26 | 8.79 ± 0.41 | 10.9 ± 0.66 |  |  | 
N-(1-(3,4-Dimethoxyphenyl)ethylidene)-2-[(9-fluoro-3-methyl-10-(4-methylpiperazin-1-yl)-7-oxo-2,3-dihydro-7H-[1,4]oxazino[2,3,4-ij]quinoline-6-carbonyl)]hydrazine-1-carbothioamide [Compound 12b] |  |  |  |  |  |  |  | 5.21 ± 0.24 | 17.6 ± 0.81 | 34.2 ± 2.06
CC1COc2c(N3CCN(C)CC3)c(F)cc3c(=O)c(C(=O)NN4C(=O)c5ccccc5C4=O)cn1c23 (centres unmarked) [Compound 9, 9-Fluoro-3-methyl-10-(4-methylpiperazin-1-yl)-7-oxo-N-(1,3-dioxoisoindolin-2-yl)-2,3-dihydro-7H-[1,4]oxazino[2,3,4-ij]quinoline-6-carboxamide] | 138 to 140 |  |  |  | 19.3 ± 0.9 | 42.2 ± 1.96 | 23.4 ± 1.41 |  |  | 
CC1COc2c(N3CCN(C)CC3)c(F)cc3c(=O)c(C(=O)NN=Cc4ccc(Cl)cc4)cn1c23 (centres unmarked) [Compound 3a, N′-(4-Chlorobenzylidene)-9-fluoro-3-methyl-10-(4-methylpiperazin-1-yl)-7-oxo-2,3-dihydro-7H-[1,4]oxazino[2,3,4-ij]quinoline-6-carbohydrazide] | 260 to 262 |  |  |  | 24.8 ± 1.61 | 24.7 ± 0.81 | 2.75 ± 0.07 |  |  | 
CC1COc2c(N3CCN(C)CC3)c(F)cc3c(=O)c(C(=O)NN=C4C(=O)Nc5ccc(Cl)cc54)cn1c23 (centres unmarked) [Compound 4c, N′-(5-Chloro-2-oxoindolin-3-ylidene)-9-fluoro-3-methyl-10-(4 methylpiperazin-1-yl)-7-oxo-2,3-dihydro-7H-[1,4]oxazino[2,3,4-ij]quinoline-6-carbohydrazide] | > 300 |  |  |  | 15.8 ± 0.76 | 36.3 ± 1.68 | 4.32 ± 0.26 |  |  | 
CC1COc2c(N3CCN(C)CC3)c(F)cc3c(=O)c(C(=O)NN=Cc4ccc(F)cc4)cn1c23 (centres unmarked) [Compound 3b, 9-Fluoro-N′-(4-fluorobenzylidene)-3-methyl-10-(4-methylpiperazin-1-yl)-7-oxo-2,3-dihydro-7H-[1,4]oxazino[2,3,4-ij]quinoline-6-carbohydrazide] | 266 to 268 |  |  |  | 63 ± 2.8 | 12 ± 0.39 | 5.64 ± 0.27 |  |  | 
2-[(9-Fluoro-3-methyl-10-(4-methylpiperazin-1-yl)-7-oxo-2,3-dihydro-7H-[1,4]oxazino[2,3,4-ij]quinoline-6-carbonyl)]-N-(1-(4-methoxyphenyl)ethylidene)hydrazine-1-carbothioamide [Compound 12a] |  |  |  |  |  |  |  | 45.4 ± 2.1 | 23.6 ± 1.09 | 23.8 ± 1.43

Further lines, with some results ahead:

melting point [°C] | IC50 at 48 h (in vitro) [µM] | Topo2β% inhibition [4] [%] | Topo2β% inhibition [5] [%] | Molecule | IC50 ([1]; Homo sapiens, MCF7, 48 h) [µM] | IC50 ([2]; Homo sapiens, Hep3B) [µM] | IC50 ([3]; Homo sapiens) [µM] | IC50 [1, 6] [µM] | IC50 ([2]; Hep3B cell line, MTT assay) [µM] | IC50 ([3]; L-SR cell line, MTT assay) [µM]
246 to 248 |  |  |  | CC1COc2c(N3CCN(C)CC3)c(F)cc3c(=O)c(C(=O)N4CCN(c5ccccc5)CC4)cn1c23 (centres unmarked) [Compound 13d, 9-Fluoro-3-methyl-10-(4-methylpiperazin-1-yl)-6-((4-phenylpiperazin-1-yl)carbonyl)-2,3-dihydro-7H-[1,4]oxazino[2,3,4-ij]quinolin-7-one] | 9.59 ± 0.44 | 24.5 ± 1.14 | 15.1 ± 0.91 |  |  | 
239 to 241 | 24 ± 1.35 | 70.93 |  | CC1COc2c(N3CCN(C)CC3)c(F)cc3c(=O)c(C(=O)N4CCN(C)CC4)cn1c23 (centres unmarked) [Compound 13c, 9-Fluoro-3-methyl-10-(4-methylpiperazin-1-yl)-6-((4-methylpiperazin-1-yl)carbonyl)-2,3-dihydro-7H-[1,4]oxazino[2,3,4-ij]quinolin-7-one] | 7.26 ± 0.34 | 1.04 ± 0.05 | 13.6 ± 0.82 |  |  | 
238 to 240 | 29.9 ± 1.68 | 68.77 | 69.38 | CC1COc2c(N3CCN(C)CC3)c(F)cc3c(=O)c(C(=O)N4CCCCC4)cn1c23 (centres unmarked) [Compound 13a, 9-Fluoro-3-methyl-10-(4-methylpiperazin-1-yl)-6-((piperidin-1-yl)carbonyl)-2,3-dihydro-7H-[1,4]oxazino[2,3,4-ij]quinolin-7-one] | 12.1 ± 0.56 | 3.46 ± 0.16 | 3.12 ± 0.19 |  |  | 
235 to 237 |  |  |  | CC1COc2c(N3CCN(C)CC3)c(F)cc3c(=O)c(C(=O)N4CCOCC4)cn1c23 (centres unmarked) [Compound 13b, 9-Fluoro-3-methyl-10-(4-methylpiperazin-1-yl)-6-((morpholin-4-yl)carbonyl)-2,3-dihydro-7H-[1,4]oxazino[2,3,4-ij]quinolin-7-one] | 26.8 ± 1.24 | 11.2 ± 0.52 | 18.3 ± 1.11 |  |  | 
